According to patent US11058654B2, “Compositions and methods for the treatment of hemoglobinopathies and thalassemias” (AXCELLA HEALTH INC., priority 2018, dated 2021):

Tests used:
IL-6 = experiment: LPS-induced IL-6 secretion in primary human PBMC-derived macrophages (ELISA); type: cell-based; conditions: for effect on LPS-induced IL-6 secretion: in words
Procedure: (§1) Unpurified buffy coats (Research Blood Components) were carefully poured into 50 mL centrifuge tubes and diluted with room temperature Dulbecco's Phosphate Buffered Saline (dPBS) with Calcium and Magnesium (Gibco). Diluted buffy coats were further divided into four total 50 mL centrifuge tubes at 20 mL per tube. Lymphocyte Separation Medium (Corning) was carefully pipetted to the bottom of each centrifuge tube. Mixtures were centrifuged at 850× g for 32 minutes at 20° C. with 0 deceleration and acceleration.
(§2) The PBMC layer was separated from other components after centrifugation and added to new 50 mL centrifuge tube containing 25 mL dPBS. Total volume was brought up to 50 mL with dPBS and centrifuged at 600× g for 10 minutes at 20° C. with acceleration of 9, deceleration of 5. Supernatant was carefully removed from cell pellets. The cell pellets were resuspended using 10 mL dPBS. Total volume was then brought up to 50 mL using dPBS and centrifuged at 450× g for 5 min at 20° C. with acceleration of 9, deceleration of 9. The supernatant removal and cell pellet resuspension was repeated again.
(§3) The supernatant was then carefully removed from cell pellets. Cell pellets were resuspended in 10 mL dPBS without calcium or magnesium and filtered through a 70 uM cell strainer. The total PBMC number was determined using a Cellometer K2 automated cell counter. A total of 5E6 cells were saved for flow cytometric analysis. Remaining cells were centrifuged at 490× g for 5 minutes at 20° C. with acceleration of 9, deceleration of 9.
(§4) CD14+ cells were selected using EasySep™ Human CD14 Positive Selection Kit II ([…] Technologies). Cells were resuspended in cold EasySep™ Buffer ([…] Technologies) at 1×10^8 cells/mL. A total of 100 uL/mL EasySep™ Human CD14 Positive Selection Cocktail II was added to the cell suspension, mixed, and incubated at room temperature for 10 minutes. A total of 100 uL/mL RapidSpheres were added to the mixture and incubated at room temperature for 3 minutes after mixing, then RoboSep buffer was added to bring up the total volume to 10 mL. The mixture in a 15 mL tube was placed in magnet and incubated at room temperature for 3 minutes. Supernatant was discarded and 10 mL fresh EasySep™ buffer was added to 15 mL tube. The addition of RoboSep buffer, mixing, and discarding of supernatant was repeated two more times.
(§5) Negative and positive fractions were centrifuged at 490× g for 5 minutes at 20° C. with acceleration of 9, deceleration of 9, and resuspended in DMEM (Gibco) and 10% Heat Inactivated Fetal Bovine Serum (Atlanta Bio) and Penicillin/Streptomycin. Cells were counted and centrifuged again at […] for 5 minutes at 20° C. with acceleration of 9, deceleration of 9. After centrifugation, cell were resuspended in DMEM (Gibco) and 10% Heat Inactivated Fetal Bovine Serum (Atlanta Bio) and Penicillin/Streptomycin containing 500 U/mL […] and plated at 1-2×10^6 cells/mL on 10 cm tissue culture plates. Cells were kept in 37° C., 5% CO2 in between feedings/harvest.
(§6) Cells were fed every 3-4 days by removing media and unattached cells, centrifuging at 490× g for 5 minutes at 20 C with acceleration of 9, deceleration of 9, and resuspending in fresh DMEM (Gibco) and 10% Heat Inactivated Fetal Bovine Serum (Atlanta Bio) and Penicillin/Streptomycin containing GM-CSF. Resuspended cells were seeded back onto 10 cm tissue culture plates and incubated at 37° C., 5% CO2. Differentiated macrophages were used for subsequent experiments.
(§7) Primary human PMBC derived macrophages were seeded on day 0 at 3.0E4 cells per well in 96-well microplates (ThermoFisher) in Dulbecco's Modified Eagle Medium (DMEM) (Gibco) supplemented with penicillin-streptomycin (Hyclone) and 10% heat inactivated fetal bovine serum (HI-FBS) (Atlanta Bio) and incubated overnight at 37° C., 5% CO2. On day 1, cells were washed once with 150 uL per well DPBS (Gibco) and treated with 75 uL of: • a. […]

TNFa = experiment: LPS-induced TNFa secretion in primary human PBMC-derived macrophages (ELISA); type: cell-based; conditions: for effect on LPS-induced TNFa secretion: in words; for TNFa Measurements Mean (baseline subtracted): LPS
Procedure: as §1, §2, §3, §4, §5, §6, §7

[1] = Plasma pharmacokinetics after oral gavage in male Sprague-Dawley rats; type: in vivo; parameters: AUC(0-t): concentration or dose not given beside the values; conditions: rat, plasma, Mean, oral gavage of RCitNacQCarLHKVS, male Sprague-Dawley rats; for AUC(0-t): read-out: AUC0-5 h; for Cmax: read-out: Cmax; for Tmax: read-out: Tmax
Procedure: A pharmacokinetic (PK) analysis was performed on plasma concentrations of various combinations of amino acid compounds administered by oral gavage to male Sprague-Dawley rats. Four animals were dosed with RCitNacQCarLHKVS, a test article comprising ten amino acid components: arginine, citrulline, N-acetylcysteine, glutamine, carnitine, leucine, histidine, lysine, valine, and serine (Table 19). Animals were fasted for 2 hours prior to dose administration. Plasma samples were taken immediately pre-dose and 0.5, 1, 2, 3, 4, and 5 hours post-dose.
Bioanalysis of collected plasma samples for amino acid content was performed at Axcella Health using an LC-MS method (Section 2.1). Bioanalytical data were analyzed using noncompartmental analysis with Phoenix® WinNonLin® (v8.1).
An LC/MS method utilizing HILIC chromatography and high-resolution mass spectrometry was used to quantify amino acids in rat plasma. The samples were prepared by protein precipitation and spiked with stable-labeled amino acid internal standard for each analyte. […] QCs, spiked into rat plasma, were utilized to assess the accuracy of the method.
PK parameters of test article components were determined from individual rat plasma concentration-time data by employing a noncompartmental approach using Phoenix WinNonlin® (Version 8.1) software. Nominal times were used to calculate the toxicokinetic parameters. […] This program analyzed data using the standard methods described by Gibaldi and Perrier (see M. Gibaldi and D. Perrier, Pharmacokinetics, 2nd edition, New York: Marcel-Dekker, Inc.; 1982.).

## NC(=O)CC[C@H](N)C(=O)O [Glutamine]
IL-6; Donor 1
  effect on LPS-induced IL-6 secretion: increased
IL-6; Donor 2
  effect on LPS-induced IL-6 secretion: increased
IL-6; Donor 3
  effect on LPS-induced IL-6 secretion: significantly increased
TNFa; Donor 2
  effect on LPS-induced TNFa secretion: increased
TNFa; Donor 3
  effect on LPS-induced TNFa secretion: increased
[1]
  AUC(0-t): 2370 µM·h
  Cmax: 605 µM
  Tmax: 30 min

## N=C(N)NCCC[C@H](N)C(=O)O [Arginine]
IL-6; Donor 1, Arginine Conc. 109 μM (baseline)
  IL-6 Measurements Mean: 0
IL-6; Donor 1, Arginine Conc. 1088 μM, baseline subtracted
  IL-6 Measurements Mean: −181.36
IL-6; Donor 1, Arginine Conc. 2720 μM, baseline subtracted
  IL-6 Measurements Mean: −186.57
IL-6; Donor 1, Arginine Conc. 5440 μM, baseline subtracted
  IL-6 Measurements Mean: 357.4394
IL-6; Donor 1
  effect on LPS-induced IL-6 secretion: increased
IL-6; Donor 2, Arginine Conc. 109 μM (baseline)
  IL-6 Measurements Mean: 2.37E−15
IL-6; Donor 2, Arginine Conc. 1088 μM, baseline subtracted
  IL-6 Measurements Mean: −9.701
IL-6; Donor 2, Arginine Conc. 2720 μM, baseline subtracted
  IL-6 Measurements Mean: −13.6102
IL-6; Donor 2, Arginine Conc. 5440 μM, baseline subtracted
  IL-6 Measurements Mean: −12.4164
IL-6; Donor 3, Arginine Conc. 109 μM (baseline)
  IL-6 Measurements Mean: 0
IL-6; Donor 3, Arginine Conc. 1088 μM, baseline subtracted
  IL-6 Measurements Mean: 31.5786
IL-6; Donor 3, Arginine Conc. 2720 μM, baseline subtracted
  IL-6 Measurements Mean: −7.503
IL-6; Donor 3, Arginine Conc. 5440 μM, baseline subtracted
  IL-6 Measurements Mean: −6.81
TNFa; Donor 1, Conc. 109 μM (baseline)
  TNFa Measurements Mean (baseline subtracted): 0
TNFa; Donor 1, Conc. 1088 μM
  TNFa Measurements Mean (baseline subtracted): −24.33
TNFa; Donor 1, Conc. 2720 μM
  TNFa Measurements Mean (baseline subtracted): 5.12
TNFa; Donor 1, Conc. 5440 μM
  TNFa Measurements Mean (baseline subtracted): 62.06
TNFa; Donor 2, Conc. 109 μM (baseline)
  TNFa Measurements Mean (baseline subtracted): 1.42E−14
TNFa; Donor 2, Conc. 1088 μM
  TNFa Measurements Mean (baseline subtracted): −12.7222
TNFa; Donor 2, Conc. 2720 μM
  TNFa Measurements Mean (baseline subtracted): −3.763
TNFa; Donor 2, Conc. 5440 μM
  TNFa Measurements Mean (baseline subtracted): −0.5738
TNFa; Donor 3, Conc. 109 μM (baseline)
  TNFa Measurements Mean (baseline subtracted): 3.55E−15
TNFa; Donor 3, Conc. 1088 μM
  TNFa Measurements Mean (baseline subtracted): 3.131
TNFa; Donor 3, Conc. 2720 μM
  TNFa Measurements Mean (baseline subtracted): −0.9669
TNFa; Donor 3, Conc. 5440 μM
  TNFa Measurements Mean (baseline subtracted): −1.767
[1]
  AUC(0-t): 2210 µM·h
  Cmax: 565 µM
  Tmax: 82.8 min

## CC(=O)N[C@@H](CS)C(=O)O [N-Acetyl Cysteine, N-acetylcysteine]
IL-6; Donor 1, Conc. 0 X (baseline)
  IL-6 Measurements Mean: 0
IL-6; Donor 1
  effect on LPS-induced IL-6 secretion: significantly reduced
IL-6; Donor 2, Conc. 0 X (baseline)
  IL-6 Measurements Mean: −2.4E−15
IL-6; Donor 2, Conc. 20 X, baseline subtracted
  IL-6 Measurements Mean: −24.9999
IL-6; Donor 2
  effect on LPS-induced IL-6 secretion: significantly reduced
IL-6; Donor 3, Conc. 0 X (baseline)
  IL-6 Measurements Mean: −9.5E−15
IL-6; Donor 3
  effect on LPS-induced IL-6 secretion: significantly reduced
TNFa; Donor 1
  effect on LPS-induced TNFa secretion: significantly reduced
TNFa; Donor 2
  effect on LPS-induced TNFa secretion: significantly reduced
TNFa; Donor 3
  effect on LPS-induced TNFa secretion: significantly reduced
